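Assay format: 96-well plates, 48-hour exposure. TGI: total growth inhibition.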
Columns and labels:
Assay in all cases: NCI anticancer screen, dose series, 48 h
[1] = test system: MCF7 breast
[2] = test system: NCI-H23 lung
[3] = test system: HOP-62 NSCLC
[4] = test system: MDA-MB-231 breast
[5] = test system: CCRF-CEM leukemia
[6] = test system: NCI-H522 lung
[7] = test system: SNB-19 CNS
[8] = test system: UACC-62 melanoma
[9] = test system: SN12C renal
[10] = test system: NCI/ADR-RES ovarian
[11] = test system: A549 NSCLC
[12] = test system: SNB-75 CNS
[13] = test system: MDA-MB-435
[14] = test system: SR leukemia
[15] = test system: HOP-92 NSCLC
[16] = test system: HS 578T breast
[17] = test system: ACHN renal
[18] = test system: NCI-H226 lung
[19] = test system: 786-0 renal
[20] = test system: SW-620 colon
[21] = test system: BT-549 breast
[22] = test system: OVCAR-5 ovarian
[23] = test system: MOLT-4 leukemia
[24] = test system: HCT-116 colon
[25] = test system: KM12 colon
[26] = test system: SK-MEL-2 melanoma
[27] = test system: MALME-3M melanoma
[28] = test system: OVCAR-8 ovarian
[29] = test system: HCT-15 colon
[30] = test system: MDA-N
[31] = test system: U251 CNS
[32] = test system: CAKI-1 renal
[33] = test system: COLO 205 colon
[34] = test system: EKVX NSCLC
[35] = test system: UO-31 renal
[36] = test system: SF-295 CNS
[37] = test system: HL-60(TB) leukemia
[38] = test system: OVCAR-3 ovarian
[39] = test system: SF-268 CNS
[40] = test system: LOX IMVI melanoma
[41] = test system: SK-OV-3 ovarian
[42] = test system: IGROV1 ovarian
[43] = test system: SK-MEL-5 melanoma
[44] = test system: HT29 colon
[45] = test system: TK-10 renal
[46] = test system: OVCAR-4 ovarian
[47] = test system: DU-145 prostate
[48] = test system: UACC-257 melanoma
[49] = test system: HCC-2998 colon
[50] = test system: M14 melanoma
[51] = test system: RPMI-8226 leukemia
[52] = test system: PC-3 prostate
[53] = test system: K-562 leukemia
[54] = test system: SF-539 CNS
[55] = test system: T-47D breast
[56] = test system: NCI-H460 lung
[57] = test system: SK-MEL-28 melanoma
[58] = test system: A498 renal
[59] = test system: RXF 393 renal

SMILES: COC1CC(OC2C(C)OC(OC3C(C)OC(OC4C(C)OC(O[C@H]5CC[C@@]6(C)C(=CC[C@]7(O)[C@@H]6C[C@@H](OC(=O)/C=C(\C)C(C)C)[C@@]6(C)[C@]7(O)CC[C@@]6(O)C(C)=O)C5)CC4OC)CC3OC)CC2OC)OC(C)C1O (stereo not given in full)
- TGI [1]: > 12.5 µM
- TGI [2]: > 12.5 µM
- TGI [3]: > 12.5 µM
- TGI [4]: > 12.5 µM
- TGI [5]: > 12.5 µM
- TGI [6]: > 12.5 µM
- TGI [7]: > 12.5 µM
- TGI [8]: > 12.5 µM
- TGI [9]: > 12.5 µM
- TGI [10]: > 12.5 µM
- TGI [11]: > 12.5 µM
- TGI [12]: > 12.5 µM
- TGI [13]: > 12.5 µM
- TGI [14]: > 12.5 µM
- TGI [15]: > 12.5 µM
- TGI [16]: > 12.5 µM
- TGI [17]: > 12.5 µM
- TGI [18]: > 12.5 µM
- TGI [19]: > 12.5 µM
- TGI [20]: > 12.5 µM
- TGI [21]: > 12.5 µM
- TGI [22]: > 12.5 µM
- TGI [23]: > 12.5 µM
- TGI [24]: > 12.5 µM
- TGI [25]: > 12.5 µM
- TGI [26]: > 12.5 µM
- TGI [27]: > 12.5 µM
- TGI [28]: > 12.5 µM
- TGI [29]: > 12.5 µM
- TGI [30]: > 12.5 µM
- TGI [31]: > 12.5 µM
- TGI [32]: > 12.5 µM
- TGI [33]: > 12.5 µM
- TGI [34]: > 12.5 µM
- TGI [35]: > 12.5 µM
- TGI [36]: > 12.5 µM
- TGI [37]: > 12.5 µM
- TGI [38]: > 12.5 µM
- TGI [39]: > 12.5 µM
- TGI [40]: > 12.5 µM
- TGI [41]: > 12.5 µM
- TGI [42]: > 12.5 µM
- TGI [43]: > 12.5 µM
- TGI [44]: > 12.5 µM
- TGI [45]: > 12.5 µM
- TGI [46]: > 12.5 µM
- TGI [47]: > 12.5 µM
- TGI [48]: > 12.5 µM
- TGI [49]: > 12.5 µM
- TGI [50]: > 12.5 µM
- TGI [51]: > 12.5 µM
- TGI [52]: > 12.5 µM
- TGI [53]: > 12.5 µM
- TGI [54]: > 12.5 µM
- TGI [55]: > 12.5 µM

SMILES: CN(C)CCCNC(=O)N/N=C/c1ccc([N+](=O)[O-])cc1
- TGI [1]: > 100 µM
- TGI [2]: > 100 µM
- TGI [3]: > 100 µM
- TGI [4]: > 100 µM
- TGI [5]: > 100 µM
- TGI [6]: > 100 µM
- TGI [7]: > 100 µM
- TGI [8]: > 100 µM
- TGI [9]: > 100 µM
- TGI [10]: > 100 µM
- TGI [11]: > 100 µM
- TGI [12]: > 100 µM
- TGI [13]: > 100 µM
- TGI [14]: > 100 µM
- TGI [16]: > 100 µM
- TGI [17]: > 100 µM
- TGI [18]: > 100 µM
- TGI [19]: > 100 µM
- TGI [20]: > 100 µM
- TGI [21]: > 100 µM
- TGI [22]: > 100 µM
- TGI [23]: > 100 µM
- TGI [24]: > 100 µM
- TGI [25]: > 100 µM
- TGI [26]: > 100 µM
- TGI [56]: > 100 µM
- TGI [27]: > 100 µM
- TGI [28]: > 100 µM
- TGI [29]: > 100 µM
- TGI [57]: > 100 µM
- TGI [30]: > 100 µM
- TGI [31]: > 100 µM
- TGI [32]: > 100 µM
- TGI [33]: > 100 µM
- TGI [35]: > 100 µM
- TGI [36]: > 100 µM
- TGI [37]: > 100 µM
- TGI [38]: > 100 µM
- TGI [39]: > 100 µM
- TGI [41]: > 100 µM
- TGI [42]: > 100 µM
- TGI [58]: > 100 µM
- TGI [43]: > 100 µM
- TGI [44]: > 100 µM
- TGI [45]: > 100 µM
- TGI [47]: > 100 µM
- TGI [48]: > 100 µM
- TGI [49]: > 100 µM
- TGI [50]: > 100 µM
- TGI [52]: > 100 µM
- TGI [53]: > 100 µM
- TGI [54]: > 100 µM
- TGI [55]: > 100 µM

SMILES: CC(=O)C1=C(c2ccccc2)N(C2OC(CO)C(O)C(O)C2O)C(S)=C(C#N)C1c1ccc(Cl)cc1 (stereo not given)
- TGI [1]: 42 µM
- TGI [2]: > 100 µM
- TGI [3]: 59.9 µM
- TGI [4]: 61.8 µM
- TGI [5]: > 100 µM
- TGI [6]: 48.1 µM
- TGI [7]: > 100 µM
- TGI [8]: 30.8 µM
- TGI [9]: > 100 µM
- TGI [10]: > 100 µM
- TGI [59]: 85.3 µM
- TGI [11]: > 100 µM
- TGI [12]: 78.8 µM
- TGI [13]: 51.2 µM
- TGI [14]: > 100 µM
- TGI [15]: 88.7 µM
- TGI [16]: 78.5 µM
- TGI [17]: > 100 µM
- TGI [18]: 58.8 µM
- TGI [19]: 80.6 µM
- TGI [20]: 34.5 µM
- TGI [21]: 35.6 µM
- TGI [22]: > 100 µM
- TGI [23]: 35.3 µM
- TGI [24]: 30.6 µM
- TGI [25]: 42.1 µM
- TGI [26]: 29.2 µM
- TGI [56]: 52.7 µM
- TGI [27]: 50.4 µM
- TGI [28]: > 100 µM
- TGI [29]: > 100 µM
- TGI [57]: 41.6 µM
- TGI [30]: 51.5 µM
- TGI [31]: 35.2 µM
- TGI [32]: 75 µM
- TGI [33]: 40.6 µM
- TGI [35]: > 100 µM
- TGI [36]: 99.6 µM
- TGI [37]: > 100 µM
- TGI [38]: 37.2 µM
- TGI [39]: 73.9 µM
- TGI [40]: 34.1 µM
- TGI [42]: > 100 µM
- TGI [58]: > 100 µM
- TGI [43]: 34.9 µM
- TGI [44]: > 100 µM
- TGI [45]: > 100 µM
- TGI [46]: > 100 µM
- TGI [47]: > 100 µM
- TGI [48]: 49.4 µM
- TGI [49]: 34.3 µM
- TGI [50]: 46.7 µM
- TGI [51]: > 100 µM
- TGI [52]: 42.2 µM
- TGI [53]: > 100 µM
- TGI [54]: 50 µM
- TGI [55]: 40.4 µM

Source: PubChem BioAssay (NCI)
